Source: patent US20160100574A1, “Antimicrobial Compositions Comprising Glyceryl Ethers” (SYMRISE AG, priority 2013, published 2016)

Assays:
Type in all cases: cell-based
A. brasiliensis = test: Challenge test / synergy (Kull equation), A. brasiliensis
Experimental: (§1) 1% b.w. of heptylglycerin, benzylglycerin and phenylpropylglycerin, respectively was added to an aqueous emulsion of Glyceryl stearyl citrate (Dracorin CE). The formulations were tested in standard challenge tests against various micro-organisms.
To calculate the synergism between compounds of formula (I) and other antimicrobial actives, the Kull equation^1 2 was used
SI=(Cmixture×PA)/CA+(Cmixture×PB)/CB (I)
where SI is the Synergy Index according to Kull^1), 2) CA is the cell count for substance A CB is the cell count for substance B Cmixture is the cell count for the mixture of substances A and B PA is the proportion of the substance A in the mixture PB is the proportion of the substance B in the mixture. ^1 Kull, F. C., Eismann, P. C., Sylvestrowicz, H. D., and R. L. Mayer (1961). Mixtures of Quaternary Ammonium Compounds and Long-chain Fatty Acids as Antifungal Agents. Applied Microbiology 9, 538-541.^2 Steinberg, D.C. (2000). Measuring Synergy. Cosmetics & Toiletries 115 (11), 59-62.
Colony counts of <100 were arbitrarily set to 100, in order to allow for synergy calculations with the above equation. The abbreviation “n.a.” means not applicable.

Pseudomonas aeruginosa = test: Minimum inhibitory concentration according to DIN 58940, Pseudomonas aeruginosa; conditions: single antimicrobial agents
Text: (§2) In order to calculate the Synergy Index SI with MIC values, the Kull equation is used as follows:
(§3) SI=(MICmixture×PA)/MICA+(MICmixture×PB)/MICB (II)
(§4) where SI is the Synergy Index according to Kull^1), 2) MICA is the MIC value for substance A MICB is the MIC value for substance B MICmixture is the MIC value for the mixture of substances A and B PA is the proportion of the substance A in the mixture PB is the proportion of the substance B in the mixture. b) Mixtures containing 3 components
(§5) SI=(MICmixture×PA)/MICA+(MICmixture×PB)/MICB+(MICmixture×PC)/MICC
(§6) where SI is the Synergy Index according to Kull^1), 2) MICA is the MIC value for substance A MICB is the MIC value for substance B MICC is the MIC value for substance C MICmixture is the MIC value for the mixture of substances […] PA is the proportion of the substance A in the mixture PB is the proportion of the substance B in the mixture. PC is the proportion of the substance C in the mixture.

Escherichia coli = test: Minimum inhibitory concentration according to DIN 58940, Escherichia coli; conditions: single antimicrobial agents
Text: as §2, §3, §4, §5, §6

Candida albicans = test: Minimum inhibitory concentration according to DIN 58940, Candida albicans; conditions: single antimicrobial agents
Text: as §2, §3, §4, §5, §6

Aspergillus brasiliensis = test: Minimum inhibitory concentration according to DIN 58940, Aspergillus brasiliensis; conditions: single antimicrobial agents
Text: as §2, §3, §4, §5, §6

Staphylococcus aureus = test: Minimum inhibitory concentration according to DIN 58940, Staphylococcus aureus; conditions: single antimicrobial agents
Text: as §2, §3, §4, §5, §6

C. albicans = test: Challenge test of preserved emulsion, C. albicans
Experimental: as §1, with “micro-organisms. The results are shown in Table 1 and indicate the high activity of the actives against yeast and bacteria, but not against mould.” for “micro-organisms.”

S. aureus = test: Challenge test of preserved emulsion, S. aureus
Experimental: as §1, with “micro-organisms. The results are shown in Table 1 and indicate the high activity of the actives against yeast and bacteria, but not against mould.” for “micro-organisms.”

E. coli = test: Challenge test of preserved emulsion, E. coli
Experimental: as §1, with “micro-organisms. The results are shown in Table 1 and indicate the high activity of the actives against yeast and bacteria, but not against mould.” for “micro-organisms.”

P. aeruginosa = test: Challenge test of preserved emulsion, P. aeruginosa
Experimental: as §1, with “micro-organisms. The results are shown in Table 1 and indicate the high activity of the actives against yeast and bacteria, but not against mould.” for “micro-organisms.”

[1] = Table 2, day 0, 1.0% total active
[2] = Table 2, day 0, relative to day 0, 1.0% total active
[3] = Table 2, day 2, 1.0% total active
[4] = Table 2, day 2, relative to day 0, 1.0% total active
[5] = Table 2, day 7, 1.0% total active
[6] = Table 2, day 7, relative to day 0, 1.0% total active
[7] = Table 2, day 14, 1.0% total active
[8] = Table 2, day 14, relative to day 0, 1.0% total active
[9] = Table 2, day 28, 1.0% total active
[10] = Table 2, day 28, relative to day 0, <100 set to 100, 1.0% total active
[11] = Day 2, 1% b.w. active in aqueous emulsion of Glyceryl stearyl citrate (Dracorin CE)
[12] = Day 14, 1% b.w. active in aqueous emulsion of Glyceryl stearyl citrate (Dracorin CE)
[13] = Day 28, 1% b.w. active in aqueous emulsion of Glyceryl stearyl citrate (Dracorin CE)
[14] = Day 7, 1% b.w. active in aqueous emulsion of Glyceryl stearyl citrate (Dracorin CE)

Structure (SMILES) | Colony counts day 0 (A. brasiliensis; [1]) | Relative colony counts day 0 (A. brasiliensis; [2]) | Colony counts day 2 (A. brasiliensis; [3]) | Relative colony counts day 2 (A. brasiliensis; [4]) | Colony counts day 7 (A. brasiliensis; [5]) | Relative colony counts day 7 (A. brasiliensis; [6]) | Colony counts day 14 (A. brasiliensis; [7]) | Relative colony counts day 14 (A. brasiliensis; [8]) | Colony counts day 28 (A. brasiliensis; [9]) | Relative colony counts day 28 (A. brasiliensis; [10]) | MIC values Pseudomonas aeruginosa (Pseudomonas aeruginosa) | MIC values E. coli (Escherichia coli) | MIC values Candida albicans (Candida albicans) | MIC values Aspergillus brasiliensis (Aspergillus brasiliensis) | MIC values Staphylococcus aureus (Staphylococcus aureus) | further results
CC(=O)c1ccc(O)cc1 [4HAP, 4-hydroxyacetophenone] | 300.000 cfu/g formulation | 1.0000 | 56.000 cfu/g formulation | 0.1867 | 1.900 cfu/g formulation | 0.0063 | 1.900 cfu/g formulation | 0.0063 | <100 cfu/g formulation | 0.0003 | 4000 ppm | 4000 ppm | 6000 ppm | 4000 ppm | 6000 ppm | Colony counts day 0 (A. brasiliensis; Table 3, day 0, 1.0% total active): 300.000 cfu/g formulation; Relative colony counts day 0 (A. brasiliensis; Table 3, day 0, relative to day 0, 1.0% total active): 1.0000; Colony counts day 2 (A. brasiliensis; Table 3, day 2, 1.0% total active): 56.000 cfu/g formulation; Relative colony counts day 2 (A. brasiliensis; Table 3, day 2, relative to day 0, 1.0% total active): 0.1867; Colony counts day 7 (A. brasiliensis; Table 3, day 7, 1.0% total active): 1.900 cfu/g formulation; Relative colony counts day 7 (A. brasiliensis; Table 3, day 7, relative to day 0, 1.0% total active): 0.0063; Colony counts day 14 (A. brasiliensis; Table 3, day 14, 1.0% total active): 1.900 cfu/g formulation; Relative colony counts day 14 (A. brasiliensis; Table 3, day 14, relative to day 0, 1.0% total active): 0.0063; Colony counts day 28 (A. brasiliensis; Table 3, day 28, 1.0% total active): <100 cfu/g formulation; Relative colony counts day 28 (A. brasiliensis; Table 3, day 28, relative to day 0, <100 set to 100, 1.0% total active): 0.0003
OCC(O)COCCCc1ccccc1 (stereo not shown) [Phenylpropylglycerin] | – | – | – | – | – | – | – | – | – | – | – | – | – | – | – | colony counts Day 2 (A. brasiliensis; [11]): 500.000 cfu/g formulation; colony counts Day 14 (A. brasiliensis; [12]): 20.000 cfu/g formulation; colony counts Day 28 (A. brasiliensis; [13]): 5.900 cfu/g formulation; colony counts Day 7 (C. albicans; [14]): <10 cfu/g formulation; colony counts Day 14 (C. albicans; [12]): <10 cfu/g formulation; colony counts Day 28 (C. albicans; [13]): <10 cfu/g formulation; colony counts Day 2 (S. aureus; [11]): <10 cfu/g formulation; colony counts Day 7 (S. aureus; [14]): <10 cfu/g formulation; colony counts Day 14 (S. aureus; [12]): <10 cfu/g formulation; colony counts Day 28 (S. aureus; [13]): <10 cfu/g formulation; colony counts Day 2 (E. coli; [11]): <10 cfu/g formulation; colony counts Day 7 (E. coli; [14]): <10 cfu/g formulation; colony counts Day 14 (E. coli; [12]): <10 cfu/g formulation; colony counts Day 28 (E. coli; [13]): <10 cfu/g formulation; colony counts Day 2 (P. aeruginosa; [11]): <10 cfu/g formulation; colony counts Day 7 (P. aeruginosa; [14]): <10 cfu/g formulation; colony counts Day 14 (P. aeruginosa; [12]): <10 cfu/g formulation; colony counts Day 28 (P. aeruginosa; [13]): <10 cfu/g formulation
CCCCC(CC)COCC(O)CO (stereo not shown) [Ethylhexylglycerin] | 315.000 cfu/g formulation | 1.0000 | 159.000 cfu/g formulation | 0.5048 | 150.000 cfu/g formulation | 0.4762 | 304.000 cfu/g formulation | 0.9635 | 304.000 cfu/g formulation | 0.9635 | >20000 ppm | 2500 ppm | 2000 ppm | 2000 ppm | 2000 ppm | –
